We go through 16 compounds from US20260138976A1 (Hoffmann-La Roche Inc., priority 2022, published 2026).

pEC50, pIC50: −log10 of the molar value.

In assay [1] the target is T1, DGKζ (hDGKzeta(1-928)-N-His) (Homo sapiens, UniProt Q13574).
T1 construct: hDGKzeta(1-928)-N-His; His (N); made in house; host or cells: Sf21 insect cells (baculovirus)
Nature of the assay: In vitro DGK inhibition assay, DGKzeta ADP Glo (in house). It counts as biochemical. The settings on record: 2 nM DGKζ, 50 μM ATP, 125 uM DLG in liposomes, 1 hour reaction. A digest of the protocol: (§1)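 ADP-Glo luminescence measured ADP formed over 1 h by Sf21-expressed full-length human enzymes: DGKα at 4 nM with 25 µM ATP, DGKζ at 2 nM with 50 µM ATP, both on 125 µM DLG in PS/PC liposomes. Dose–response used 11 threefold dilutions at 2% final DMSO.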
On the technique in general: In ADP-Glo the light output rises with the ADP produced.

In assay [2] the test system is primary human T-cells. The experiment in a line: IL2 secretion measurements (24 h, CD3-stimulated T-cells, PBS counter screen). The settings on record: for Emax IL2 (% activation): CD3 condition, normalised to DMSO (neutral) and 20 μM reference compound A1 = 100%; for pEC50: Homo sapiens, T-cell, CD3-stimulated primary human T-cells, IL2 secretion, fitted sigmoidal curve, read-out: Tcell IL2 CD3 EC50. It counts as cell-based. A digest of the protocol:
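IL-2 secretion was measured by ProQuantum or ELISA after 24 h culture of expanded human T-cells with compound, on CD3-antibody-coated plates or PBS counter-screen plates. Dosing used 5–6 points from a 20 or 10 μM final top at 3.333-fold steps in 0.2% DMSO. EC50/Emax were scaled between DMSO and 20 μM reference A1.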
Background: A counterscreen serves to expose hits that act by an unwanted route or on another target.

The target in assay [3] is T2, DGKα (hDGKalpha(1-735)-N-His) (Homo sapiens, UniProt P23743).
T2 construct: hDGKalpha(1-735)-N-His; His (N); made in house; host or cells: Sf21 insect cells (baculovirus)
T2 sequence (P23743 whole entry): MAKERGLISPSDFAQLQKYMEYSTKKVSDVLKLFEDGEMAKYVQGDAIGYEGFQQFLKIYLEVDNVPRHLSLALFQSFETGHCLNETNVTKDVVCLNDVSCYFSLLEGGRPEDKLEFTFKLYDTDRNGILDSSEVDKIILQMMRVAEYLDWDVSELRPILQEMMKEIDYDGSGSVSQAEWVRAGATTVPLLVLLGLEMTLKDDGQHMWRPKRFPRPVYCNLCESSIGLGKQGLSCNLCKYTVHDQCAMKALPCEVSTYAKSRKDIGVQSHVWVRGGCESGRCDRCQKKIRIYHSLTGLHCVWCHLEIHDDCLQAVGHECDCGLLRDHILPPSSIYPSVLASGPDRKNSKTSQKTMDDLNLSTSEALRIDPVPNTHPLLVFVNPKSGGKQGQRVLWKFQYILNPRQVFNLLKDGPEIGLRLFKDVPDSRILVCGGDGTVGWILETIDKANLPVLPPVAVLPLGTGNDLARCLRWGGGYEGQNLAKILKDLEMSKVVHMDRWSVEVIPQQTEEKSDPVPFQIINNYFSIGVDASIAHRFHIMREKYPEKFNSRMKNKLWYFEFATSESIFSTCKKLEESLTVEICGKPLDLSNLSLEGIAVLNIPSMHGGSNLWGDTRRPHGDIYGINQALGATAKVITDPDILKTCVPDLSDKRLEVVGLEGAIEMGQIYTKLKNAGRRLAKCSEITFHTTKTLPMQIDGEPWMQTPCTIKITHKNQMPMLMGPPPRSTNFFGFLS
Nature of the assay: In vitro DGK inhibition assay, DGKalpha ADP Glo (in house). It counts as biochemical. The settings on record: 4 nM DGKα, 25 μM ATP, 125 uM DLG in liposomes, 1 hour reaction. The method in brief:
as §1

T1 sequence (Q13574 whole entry): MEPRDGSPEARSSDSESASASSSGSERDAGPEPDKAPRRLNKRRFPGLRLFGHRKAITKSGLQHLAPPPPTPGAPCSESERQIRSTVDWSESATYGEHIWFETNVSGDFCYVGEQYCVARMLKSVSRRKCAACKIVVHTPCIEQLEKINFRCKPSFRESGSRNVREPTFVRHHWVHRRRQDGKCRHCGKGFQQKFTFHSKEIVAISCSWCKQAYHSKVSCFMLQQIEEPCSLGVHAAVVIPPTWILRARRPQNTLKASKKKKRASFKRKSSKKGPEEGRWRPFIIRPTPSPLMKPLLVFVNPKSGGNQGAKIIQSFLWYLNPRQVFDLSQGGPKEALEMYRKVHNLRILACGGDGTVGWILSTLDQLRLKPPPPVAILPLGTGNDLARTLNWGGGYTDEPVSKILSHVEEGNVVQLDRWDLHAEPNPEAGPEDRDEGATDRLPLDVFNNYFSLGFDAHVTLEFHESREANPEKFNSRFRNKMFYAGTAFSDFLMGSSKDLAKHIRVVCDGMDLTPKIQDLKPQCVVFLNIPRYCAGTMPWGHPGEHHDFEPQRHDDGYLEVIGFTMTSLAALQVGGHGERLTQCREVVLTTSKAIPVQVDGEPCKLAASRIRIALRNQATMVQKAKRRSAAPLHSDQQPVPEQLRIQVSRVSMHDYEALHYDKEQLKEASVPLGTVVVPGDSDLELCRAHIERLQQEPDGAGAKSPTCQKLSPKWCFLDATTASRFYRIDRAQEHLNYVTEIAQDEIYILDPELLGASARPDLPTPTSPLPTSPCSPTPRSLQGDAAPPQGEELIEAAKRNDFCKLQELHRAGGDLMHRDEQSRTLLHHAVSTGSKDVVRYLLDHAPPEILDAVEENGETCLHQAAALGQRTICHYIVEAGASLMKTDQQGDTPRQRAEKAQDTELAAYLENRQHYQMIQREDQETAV

In the case of `N[C@H]1CS(=O)(=O)c2ccc(-c3nnc(C4(CO)CCCO4)o3)cc2N(Cc2ccc(-c3ccc(C(F)(F)F)cc3)cc2)C1=O` (stereo partly shown) [Example 55], the pIC50 in assay [1] was 4.69; in assay [3] it was below 4.20. The “Emax IL2 (% activation)” value in assay [2] was found to be 74 % activation. Also, the pEC50 in assay [2] is 5.51.
`N[C@H]1CS(=O)(=O)c2ccc(-c3nnc(N4CCOC(C(F)(F)F)C4)o3)cc2N(Cc2ccc(-c3ccc(C(F)(F)F)cc3)cc2)C1=O` (stereo partly drawn) [Example 73, (3R)-3-amino-1,1-dioxo-7-[5-[2-(trifluoromethyl)morpholin-4-yl]-1,3,4-oxadiazol-2-yl]-5-[[4-[4-(trifluoromethyl)phenyl]phenyl]methyl]-2,3-dihydro-1λ^6,5-benzothiazepin-4-one] showed a pIC50 in assay [1] of 4.87. Moreover, in assay [2], the “Emax IL2 (% activation)” value is 116 % activation and the pEC50 is 5.60. Moreover, the pIC50 in assay [3] is below 4.20.
In turn, `COCCN1CC(c2nnc(-c3ccc4c(c3)N(Cc3ccc(-c5noc(C(F)(F)F)n5)cc3)C(=O)[C@@H](N)CS4(=O)=O)o2)CC(F)(F)C1` (stereo partly drawn) [Example 182, (3R)-3-amino-7-[5-[5,5-difluoro-1-(2-methoxyethyl)-3-piperidyl]-1,3,4-oxadiazol-2-yl]-1,1-dioxo-5-[[4-[5-(trifluoromethyl)-1,2,4-oxadiazol-3-yl]phenyl]methyl]-2,3-dihydro-1λ^6,5-benzothiazepin-4-one] showed a pIC50 in assay [1] of 5.70. For the same compound, in assay [2], the “Emax IL2 (% activation)” value is 149 % activation and the pEC50 is 5.49. In assay [3], the pIC50 is below 4.20.
As to `CC(C)(C)c1nnc(-c2ccc3c(c2)N(Cc2ccc(-c4nc(C(F)(F)F)co4)cc2)C(=O)[C@@H](N)CS3(=O)=O)o1` [Example 89, (3R)-3-amino-7-(5-tert-butyl-1,3,4-oxadiazol-2-yl)-1,1-dioxo-5-[[4-[4-(trifluoromethyl)oxazol-2-yl]phenyl]methyl]-2,3-dihydro-1λ^6,5-benzothiazepin-4-one], in assay [1], the pIC50 was 6.21. In addition, in assay [2], the “Emax IL2 (% activation)” value is 182 % activation and the pEC50 was 6.42. In assay [3], this compound had a pIC50 of 5.08.
For `Cc1noc(-c2ccc(CN3C(=O)[C@@H](N)CS(=O)(=O)c4cc(F)c(-c5nnc(C(C)(C)C)o5)cc43)cc2)n1` [Example 2] the same measures were 6.89, 168 % activation, 6.05 and 6.21.
On the same counts, the results for `N[C@H]1CS(=O)(=O)c2ccc(-c3noc(C4(N)COC4)n3)cc2N(Cc2ccc(-c3noc(C(F)(F)F)n3)cc2)C1=O` [Example 84, (3R)-3-amino-7-[5-(3-aminooxetan-3-yl)-1,2,4-oxadiazol-3-yl]-1,1-dioxo-5-[[4-[5-(trifluoromethyl)-1,2,4-oxadiazol-3-yl]phenyl]methyl]-2,3-dihydro-1lambda6,5-benzothiazepin-4-one] are 5.51, 33 % activation, below 5.00 and below 4.20.
For `Cn1ccc(-c2ccc(CN3C(=O)[C@@H](N)CS(=O)(=O)c4cc(F)c(-c5nnc(C(C)(C)C)o5)cc43)cc2)n1` [Example 1, (3R)-3-amino-7-(5-tert-butyl-1,3,4-oxadiazol-2-yl)-8-fluoro-5-[[4-(1-methylpyrazol-3-yl)phenyl]methyl]-1,1-dioxo-2,3-dihydro-1λ^6,5-benzothiazepin-4-one] the same measures were 6.31, 91 % activation, 5.88 and 5.63.
Regarding `COc1ccc(-c2ccc(CN3C(=O)[C@@H](N)CS(=O)(=O)c4ccc(-c5nnc(N6CCOC(F)(F)C6)o5)cc43)cc2)cc1` [Example 79, (3R)-3-amino-7-[5-(2,2-difluoromorpholin-4-yl)-1,3,4-oxadiazol-2-yl]-5-[[4-(4-methoxyphenyl)phenyl]methyl]-1,1-dioxo-2,3-dihydro-1λ^6,5-benzothiazepin-4-one], the pIC50 in assay [1] is 6.06. Also, in assay [2], the “Emax IL2 (% activation)” value is given as 236 % activation and the pEC50 was 5.61. The compound also gave a pIC50 in assay [3] of 4.40.
On the same counts, the results for `CC(C)(c1nnc(-c2ccc3c(c2)N(Cc2ccc(-c4noc(C5CC5)n4)cc2)C(=O)[C@@H](N)CS3(=O)=O)o1)C(F)(F)F` [Example 167, (3R)-3-amino-5-[[4-(5-cyclopropyl-1,2,4-oxadiazol-3-yl)phenyl]methyl]-1,1-dioxo-7-[5-(2,2,2-trifluoro-1,1-dimethyl-ethyl)-1,3,4-oxadiazol-2-yl]-2,3-dihydro-1λ^6,5-benzothiazepin-4-one] are 6.03, 279 % activation, 6.20 and below 4.20.
On the same counts, the results for `COc1ccc(-c2ccc(CN3C(=O)[C@@H](N)CS(=O)(=O)c4ccc(-c5nnc(C6(CO)CCCO6)o5)cc43)cc2)cc1` (stereo partly drawn) [Example 63, (3R)-3-amino-7-[5-[2-(hydroxymethyl)tetrahydrofuran-2-yl]-1,3,4-oxadiazol-2-yl]-5-[[4-(4-methoxyphenyl)phenyl]methyl]-1,1-dioxo-2,3-dihydro-1λ^6,5-benzothiazepin-4-one] are 5.77, 78 % activation, 5.62 and 4.47.
On the same counts, the results for `N[C@H]1CS(=O)(=O)c2ccc(-c3nnc(N4CCC(F)(F)CC4)o3)cc2N(Cc2ccc(-c3nnc(C(F)(F)F)o3)cc2)C1=O` [Example 71, (3R)-3-amino-7-[5-(4,4-difluoro-1-piperidyl)-1,3,4-oxadiazol-2-yl]-1,1-dioxo-5-[[4-[5-(trifluoromethyl)-1,3,4-oxadiazol-2-yl]phenyl]methyl]-2,3-dihydro-1λ^6,5-benzothiazepin-4-one] are 6.05, 111 % activation, 5.49 and 4.61.
Take `CC(N)(c1nnc(-c2ccc3c(c2)N(Cc2ccc(-c4noc(CC(F)(F)F)n4)cc2)C(=O)[C@@H](N)CS3(=O)=O)o1)C(F)(F)F` (stereo partly drawn) [Example 33, (3R)-3-amino-7-[5-(1-amino-2,2,2-trifluoro-1-methyl-ethyl)-1,3,4-oxadiazol-2-yl]-1,1-dioxo-5-[[4-[5-(2,2,2-trifluoroethyl)-1,2,4-oxadiazol-3-yl]phenyl]methyl]-2,3-dihydro-1λ^6,5-benzothiazepin-4-one]: the pIC50 in assay [1] was 5.58. In assay [2], the “Emax IL2 (% activation)” value is reported as 24 % activation and the pEC50 is below 5.00. In assay [3], this compound had a pIC50 of 4.62.
On the same counts, the results for `COc1ccc(-c2ccc(CN3C(=O)[C@@H](N)CS(=O)(=O)c4ccc(-c5nnc(N(C)CC(F)(F)F)o5)cc43)cc2)cc1` [Example 81, (3R)-3-amino-5-[[4-(4-methoxyphenyl)phenyl]methyl]-7-[5-[methyl(2,2,2-trifluoroethyl)amino]-1,3,4-oxadiazol-2-yl]-1,1-dioxo-2,3-dihydro-1λ^6,5-benzothiazepin-4-one] are 5.61, 66 % activation, 6.28 and 4.41.
For `Cc1noc(-c2ccc(CN3C(=O)[C@@H](N)CS(=O)(=O)c4ccc(-c5nnc(C(C)(C)C)o5)cc43)cc2)n1` [Example 20, (3R)-3-amino-7-(5-tert-butyl-1,3,4-oxadiazol-2-yl)-5-[[4-(3-methyl-1,2,4-oxadiazol-5-yl)phenyl]methyl]-1,1-dioxo-2,3-dihydro-1λ^6,5-benzothiazepin-4-one], in assay [1], the pIC50 was 5.91. Moreover, in assay [2], the “Emax IL2 (% activation)” value is listed as 82 % activation and the pEC50 is 5.12. Further, in assay [3], the negative logarithm of the IC50 (pIC50) is 5.30.
On the same counts, the results for `C[C@@](N)(c1nnc(-c2ccc3c(c2)N(Cc2ccc(-c4noc(C(F)(F)F)n4)cc2)C(=O)[C@@H](N)CS3(=O)=O)o1)C(F)(F)F` [Example 52, (3R)-3-amino-7-[5-[(1R)-1-amino-2,2,2-trifluoro-1-methyl-ethyl]-1,3,4-oxadiazol-2-yl]-1,1-dioxo-5-[[4-[5-(trifluoromethyl)-1,2,4-oxadiazol-3-yl]phenyl]methyl]-2,3-dihydro-1λ^6,5-benzothiazepin-4-one] are 5.64, 164 % activation, 6.19 and 4.60.
On the same counts, the results for `CC(c1nc(-c2ccc(CN3C(=O)[C@@H](N)CS(=O)(=O)c4ccc(-c5nnc(C6(N)CCCCC6)o5)cc43)cc2)no1)C(F)(F)F` (stereo partly drawn) [Example 98, (3R)-3-amino-7-[5-(1-aminocyclohexyl)-1,3,4-oxadiazol-2-yl]-1,1-dioxo-5-[[4-[5-(2,2,2-trifluoro-1-methyl-ethyl)-1,2,4-oxadiazol-3-yl]phenyl]methyl]-2,3-dihydro-1λ^6,5-benzothiazepin-4-one] are 5.99, 97 % activation, 5.86 and 4.62.

Usually pIC50 stands for the negative decadic logarithm of the IC50, by convention in mol/L. Read a high pIC50 as a low IC50. By pEC50 is commonly meant −log10 of the EC50, conventionally taken in molar units.
